Source: US20210070747A1, “2(1H)-QUINOLINONE DERIVATIVE” (priority 2017, published 2021)
In brackets after ≈: the same amount, converted by molar mass. Where two headings read alike, the source gives them in different places.

How the values were obtained:
[1] = test system: N. gonorrhoeae ATCC 49226; experiment: Test for evaluating antibacterial activity (N. gonorrhoeae), broth microdilution MIC; assay type: cell-based; conditions: Neisseria gonorrhoeae, ATCC49226; 35° C., 24 hours, gonococcal broth
Protocol: Minimum inhibitory concentration (MIC) was measured using the broth microdilution method described below in accordance with a modification of the method of Geers et al. (Antimicrob. Agents. Chemother. (1989), 33, 233-234).
After sterilization, BD. Difco supplement C was added to give a final concentration of 1%, whereby a gonococcal broth was prepared.
(§1) Bacterial cells under test were cultured overnight on a chocolate II agar medium, scraped off and suspended at a concentration equivalent to McFarland 0.5 turbidity; the suspension thus obtained was diluted 5 folds to give a liquid inoculum. The inoculum (0.005 mL) was inoculated on a gonococcal broth containing the analyte compound and cultured at 35° C. for 24 hours. A minimum drug concentration at which no bacterial growth was macroscopically visible was designated MIC.

[2] = target: T1, E. coli DNA gyrase (Escherichia coli, UniProt P0AES6); experiment: Test for evaluating the activity of inhibiting E. coli DNA gyrase enzyme (Method 2, supercoiling, recombinant gyrA/gyrB complex); assay type: biochemical
T1 construct: made in house; host or cells: E. coli BL21 (DE3)
Protocol: The enzymatic activity of E. coli DNA gyrase was measured by a method comprising reacting DNA gyrase and its substrate, relaxed pBR322 (Inspiralis), in the presence of ATP and detecting the post-reaction supercoiled pBR322/relaxed pBR322 ratio with H19.
Specifically, to 1 ng/μL of relaxed pBR322, E. coli DNA gyrase enzyme (the gyrA or gyrB gene was incorporated into the pET15b plasmid and after expressing them in E. coli BL21 (DE3), purification was performed using a Ni-NTA column to form a complex at room temperature) was added at a final concentration of 0.135 nmol/mL and the mixture was incubated for 60 minutes at room temperature. This reaction was carried out in 20 mmol/L tris-HCl buffered solution (pH 8.0) comprising 0.5 mmol/L ATP, 0.005% bridge 35, 35 mmol/L ammonium acetate, 8 mmol/L magnesium chloride, 4.6% glycerol, and 1 mmol/L dithiothreitol. To the reaction mixture, H19 was added to bring the reaction to an end; thereafter, the supercoiled pBR322/relaxed pBR322 ratio was detected at excitation wavelength/emission wavelength=485 nm/535 nm. An inhibition curve was obtained by allowing the analyte compound to be present at varying concentrations during the reaction described above.

[3] = test system: E. Coli ATCC 25922; experiment: Test for evaluating antibacterial activity (E. coli), broth microdilution MIC; assay type: cell-based; conditions: Escherichia coli, ATCC25922; 35° C., 18 hours, cation-adjusted Mueller-Hinton medium
Protocol: Minimum inhibitory concentration (MIC) was measured using the broth microdilution method described below in accordance with a modification of the standard method specified by CLSI (Clinical & Laboratory Standards Institute).
as §1, with “a heart infusion” for “a chocolate II”, “diluted 10” for “diluted 5”, “a cation-adjusted Mueller-Hinton medium” for “a gonococcal broth”, “for 18” for “for 24”

[4] = Method 2, read-out: E. Coli Gyrase supercoiling IC50

| Compound | MIC [1] [µg/mL] | IC50 [2, 4] [nM] | MIC [3] [µg/mL] | IC50 [2] [nM] | inhibition at 0.1 µM ([2]; Method 2, at 100 nM) [%] |
| --- | --- | --- | --- | --- | --- |
| CNc1cccc2cc(C(=O)NCCc3nc(O)cc(O)n3)c(=O)[nH]c12 [Example 32, N-[2-(4,6-dihydroxy-pyrimidine-2-yl)ethyl]-8-(methylamino)-2-oxo-1,2-dihydroquinoline-3-carboxamide] | > 4 | 25.3 | > 64 | – | – |
| CNc1cccc2cc(C(=O)Nc3cnc(CO)nc3)c(=O)[nH]c12 [Example 37, N-[2-(hydroxymethyl)pyrimidine-5-yl]-8-(methylamino)-2-oxo-1,2-dihydroquinoline-3-carboxamide] | 1 (≈ 3.07 µM) | 9.97 | > 4 | – | – |
| CNc1cc(F)cc2cc(C(=O)Nc3ccc(C(=O)O)cc3CN(C)C3CCN(C)CC3)c(=O)[nH]c12.Cl [Example 83, 4-{[6-fluoro-8-(methylamino)-2-oxo-1,2-dihydroquinoline-3-carbonyl]amino)-3-{[methyl(1-methylpiperidine-4-yl)amino]methyl} benzoic acid-hydrochloride] | > 4 | – | > 16 | 1.09 | – |
| CNc1cc(F)cc2cc(C(=O)Nc3cnccc3CO)c(=O)[nH]c12 [Example 91, 6-Fluoro-N-[4-(hydroxymethyl)pyridin-3-yl]-8-(methylamino)-2-oxo-1,2-dihydroquinoline-3-carboxamide] | 1 (≈ 2.92 µM) | 18.6 | > 16 | – | – |
| CCc1cc(C(=O)O)ccc1NC(=O)c1cc2cc(F)cc(NC)c2[nH]c1=O [Example 93, 3-ethyl-4-{[6-fluoro-8-(methylamino)-2-oxo-1,2-dihydraquinoline-3-carbonyl]amino} benzoic acid] | 0.25 (≈ 0.652 µM) | 31.8 | > 2 | – | – |
| CNc1cc(F)cc2cc(C(=O)Nc3cnccc3CN(C)C3CCCCC3)c(=O)[nH]c12 [Example 95, N-(4-{[cyclohexyl(methyl)amino]methyl}pyridine-3-yl)-6-fluoro-8-(methylamino)-2-oxo-1,2-dihydroquinoline-3-carboxamide] | 1 (≈ 2.29 µM) | – | > 16 | 2.16 | – |
| CNc1cc(F)cc2cc(C(=O)Nc3c(C)cc(C(=O)O)cc3CN(C)C3CCCCC3)c(=O)[nH]c12 [Example 99, 3-{[cyclohexyl (methyl)amino]methyl}-4-{[6-fluoro-8-(methylamino)-2-oxo-1,2-dihydroquinoline-3-carbonyl]amino}-5-methylbenzoic acid] | 0.25 (≈ 0.505 µM) | 0.7 | 64 (≈ 129 µM) | – | – |
| CNc1cc(F)cc2nc(C(=O)Nc3ccc(C(=O)O)cc3CN(C)C3CCCCC3)c(=O)[nH]c12 [Example 100, 3-[[Cyclohexyl(methyl)amino]methyl]-4-[[7-fluoro-5-(methylamino)-3-oxo-3,4-dihydroquinoxaline-2-carbonyl]amino]benzoic Acid] | > 1 | 33.7 | > 64 | – | – |
| CNc1cc(F)cc2cc(C(=O)Nc3ccccc3CN(CC(=O)O)C3CCCCC3)c(=O)[nH]c12 [Example 103, N-cyclohexyl-N-[(2-{[6-fluoro-8-(methylamino)-2-oxo-1,2-dihydroquinoline-3-carbonyl]amino}phenyl)methyl]glycine] | 4 (≈ 8.32 µM) | – | > 64 | 12.1 | – |
| CCCCCCCCN(CCCCCCCC)Cc1cc(C(=O)O)ccc1NC(=O)c1cc2cc(F)cc(NC)c2[nH]c1=O [Example 106, 3-[(dioctylamino)methyl]-4-{[6-fluoro-8-(methylamino)-2-oxo-1,2-dihydroquinoline-3-carbonyl]amino} benzoic acid] | 0.5 (≈ 0.821 µM) | 6.98 | > 8 | – | – |
| CNc1cncc2cc(C(=O)Nc3ccc(C(=O)O)cc3CN(C)C3CCCCC3)c(=O)[nH]c12 [Example 108, 3-[[Cyclohexyl(methyl)amino]methyl]-4-[[8-(methylamino)-2-oxo-1,2-dihydro-1,6-naphthyridine-3-carbonyl]amino]benzoic Acid] | > 1 | 6.05 | > 32 | – | – |
| CNc1cc(F)cc2cc(C(=O)Nc3ccc(C(=O)O)cc3CN(CCN)C3CCCCC3)c(=O)[nH]c12.O=C(O)C(F)(F)F [Example 110, 3-{[(2-aminoethyl)(cyclohexyl)amino]methyl}-4-{[6-fluoro-8-(methylamino)-2-oxo-1,2-dihydroquinoline-3-carbonyl]amino}benzoic acid-trifluoroacetate] | > 1 | – | > 64 | 3.68 | – |
| CNc1cc(F)cc2cc(C(=O)N[C@H]3CC[C@H](C(=O)O)CC3)c(=O)[nH]c12 [Example 116, trans-4-{[6-fluoro-8-(methylamino)-2-oxo-1,2-dihydroquinoline-3-carbonyl]amino} cyclohexane-1-carboxylic acid] | > 1 | – | > 64 | 137 | – |
| CNc1cc(F)cc2c(OC)c(C(=O)Nc3ccc(C(=O)O)cc3)c(=O)[nH]c12 [Example 118, 4-[[6-Fluoro-4-methoxy-8-(methylamino)-2-oxo-1,2-dihydroquinoline-3-carbonyl]amino]benzoic Acid] | 1 (≈ 2.6 µM) | – | > 64 | – | 45 |
| CNc1cc(F)cc2cc(C(=O)Nc3ccc(C(N)=O)cc3CN(C)C3CCCCC3)c(=O)[nH]c12 [Example 121, N-(4-carbamoyl-2-{[cyclohexyl(methyl)amino]methyl}phenyl)-6-fluoro-8-(methylamino)-2-oxo-1,2-dihydroquinoline-3-carboxamide] | 0.25 (≈ 0.521 µM) | 2.48 | > 32 | – | – |
| CNc1cc(F)cc2cc(C(=O)Nc3ccc(CO)cc3CN(C)C3CCCCC3)c(=O)[nH]c12 [Example 122, N-[2-{[cyclohexyl(methyl)amino]methyl}-4-(hydroxymethyl)phenyl]-6-fluoro-8-(methylamino)-2-oxo-1,2-dihydroquinoline-3-carboxamide] | 0.5 (≈ 1.07 µM) | 1.92 | 16 (≈ 34.3 µM) | – | – |
| CNc1cc(F)cc2c(O)c(C(=O)Nc3ccccc3)c(=O)[nH]c12 [Example 129, 6-fluoro-4-hydroxy-8-(methylamino)-2-oxo-N-phenyl-1,2-dihydroquinoline-3-carboxamide] | 1 (≈ 3.06 µM) | 387 | > 16 | – | – |
| CNc1cc(F)cc2c(NCCCN)c(C(=O)Nc3ccc(C(=O)O)cc3)c(=O)[nH]c12.O=CO [Example 132, 4-({4-[(3-aminopropyl)amino]-6-fluoro-8-(methylamino)-2-oxo-1,2-dihydroquinoline-3-carbonyl}amino)benzoic acid-formate] | 0.25 | – | > 8 | 0.52 | – |
| CNc1cc(F)cc2c(NCC3CNC3)c(C(=O)Nc3ccc(C(=O)O)cc3)c(=O)[nH]c12.O=CO [Example 135, 4-{[4-{[(azetidine-3-yl)methyl]amino}-6-fluoro-8-(methylamino)-2-oxo-1,2-dihydroquinoline-3-carbonyl]amino}benzoic acid-formate] | 0.12 | – | > 16 | 0.66 | – |
| CNc1cc(F)cc2c(O)c(C(=O)Nc3cncnc3)c(=O)[nH]c12 [Example 138, 6-fluoro-4-hydroxy-8-(methylamino)-2-oxo-N-(pyrimidine-5-yl)-1,2-dihydroquinoline-3-carboxamide] | 0.06 (≈ 0.182 µM) | 129 | 32 (≈ 97.2 µM) | – | – |
| CNc1cc(F)cc2cc(C(=O)Nc3ccc(-c4noc(=O)[nH]4)cc3)c(=O)[nH]c12 [Example 144, 6-fluoro-8-(methylamino)-2-oxo-N-[4-(5-oxo-4,5-dihydro-1,2,4-oxadiazole-3-yl)phenyl]-1,2-dihydroquinoline-3-carboxamide] | 0.004 (≈ 0.0101 µM) | 0.48 | > 8 | – | – |
| CNc1cc(F)cc2cc(C(=O)Nc3ccc(C(=O)NS(C)(=O)=O)cc3)c(=O)[nH]c12 [Example 145, 6-fluoro-N-{4-[(methanesulfonyl)carbamoyl]phenyl}-8-(methylamino)-2-oxo-1,2-dihydroquinoline-3-carboxamide] | 0.06 (≈ 0.139 µM) | 0.19 | > 32 | – | – |
| CNc1cc(F)cc2c(O)c(C(=O)Nc3ccc(C(=O)NS(C)(=O)=O)cc3)c(=O)[nH]c12 [Example 147, 6-Fluoro-4-hydroxy-N-[4-[(methanesulfonyl)carbamoyl]phenyl]-8-(methylamino)-2-oxo-1,2-dihydroquinoline-3-carboxamide] | 0.008 (≈ 0.0178 µM) | 1.75 | > 32 | – | – |
